Test results taken from PMC3160198 (The Journal of neuroscience : the official journal of the …, 2011).

What was measured:
α1β2 GABAA receptor = α1β2 GABAA receptor (Rattus norvegicus, UniProt P62813+P63138); experiment: whole-cell patch clamp in HEK […] cells, potentiation of GABA current; assay type: cell-based; conditions: GABA 1 μM (EC50); pH 7.4; -60 mV; positive modulator
[1] = target: homomeric ρ1 GABAC receptor (GABAρ1) (Homo sapiens, UniProt P24046); experiment: two-electrode voltage clamp in Xenopus oocytes, potentiation of GABA current; assay type: cell-based; conditions: 3000 µM, GABA 0.3 μM, pH 7.0, -70 mV
homomeric ρ1 GABAC receptor (GABAρ1), sequence (P24046 22-479): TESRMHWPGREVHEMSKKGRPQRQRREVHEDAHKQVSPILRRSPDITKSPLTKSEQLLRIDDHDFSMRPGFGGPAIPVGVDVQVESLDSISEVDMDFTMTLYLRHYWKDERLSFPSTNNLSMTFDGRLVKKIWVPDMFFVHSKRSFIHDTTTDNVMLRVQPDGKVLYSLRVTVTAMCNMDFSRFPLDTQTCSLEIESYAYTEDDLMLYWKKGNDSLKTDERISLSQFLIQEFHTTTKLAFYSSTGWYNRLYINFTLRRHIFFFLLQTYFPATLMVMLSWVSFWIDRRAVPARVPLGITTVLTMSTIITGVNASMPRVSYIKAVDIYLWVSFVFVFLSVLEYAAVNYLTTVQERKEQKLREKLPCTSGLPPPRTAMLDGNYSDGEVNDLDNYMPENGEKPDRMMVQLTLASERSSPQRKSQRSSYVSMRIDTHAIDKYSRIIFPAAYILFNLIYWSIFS

α1β2 GABAA receptor, sequence (P62813 28-455): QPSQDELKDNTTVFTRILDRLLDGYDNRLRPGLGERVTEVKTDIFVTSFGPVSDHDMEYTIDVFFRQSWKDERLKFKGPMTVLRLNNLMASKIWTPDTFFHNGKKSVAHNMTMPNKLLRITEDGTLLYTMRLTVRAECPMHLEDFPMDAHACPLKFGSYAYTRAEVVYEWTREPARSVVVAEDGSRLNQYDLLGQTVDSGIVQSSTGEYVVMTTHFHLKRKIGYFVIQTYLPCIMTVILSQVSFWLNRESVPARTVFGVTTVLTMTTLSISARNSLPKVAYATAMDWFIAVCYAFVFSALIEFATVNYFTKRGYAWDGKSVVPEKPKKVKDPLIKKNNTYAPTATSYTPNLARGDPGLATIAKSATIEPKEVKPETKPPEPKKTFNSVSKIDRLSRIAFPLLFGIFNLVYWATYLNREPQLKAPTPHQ
α1β2 GABAA receptor, sequence (P63138 26-474): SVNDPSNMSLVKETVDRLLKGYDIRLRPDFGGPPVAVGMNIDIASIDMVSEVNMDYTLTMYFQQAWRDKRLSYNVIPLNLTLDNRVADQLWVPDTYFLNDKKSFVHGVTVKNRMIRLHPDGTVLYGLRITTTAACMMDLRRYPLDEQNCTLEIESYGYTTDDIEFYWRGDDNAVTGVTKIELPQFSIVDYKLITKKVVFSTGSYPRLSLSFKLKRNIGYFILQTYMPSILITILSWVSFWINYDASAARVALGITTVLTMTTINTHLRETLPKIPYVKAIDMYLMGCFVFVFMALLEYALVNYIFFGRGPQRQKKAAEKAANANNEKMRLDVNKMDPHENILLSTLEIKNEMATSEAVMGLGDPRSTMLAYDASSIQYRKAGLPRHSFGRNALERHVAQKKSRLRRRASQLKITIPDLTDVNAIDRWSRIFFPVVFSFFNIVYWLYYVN

| % potentiation at 10 mM (α1β2 GABAA receptor) | % Potentiation ([1]; positive allosteric modulator) [%] | % Potentiation [1] [%] | Compound |
| --- | --- | --- | --- |
| ~ 600% | 139.5 ± 87.5 | – | O=C1O[C@H]([C@@H](O)CO)C(O)=C1O [Asc, Ascorbic acid] |
| – | 33.5 ± 12.5 | – | O=C1O[C@H]([C@H](O)CO)C(O)=C1O [D-isoAsc, D-isoascorbic acid] |
| – | – | -1.6 ± 4.2 | O=C1O[C@H]([C@@H](O)CO)C(=O)C1=O [DHA, L-dehydroascorbic acid] |
